In patent US20240294551A1 (AMGEN INC., priority 2022, published 2024):
pIC50: −log10 of the molar value. Where two headings read alike, the source gives them in different places.

Legend:
[1] = target: His-tagged KRAS G12D protein (Homo sapiens (Human), UniProt P01116, G12D); experiment: KRAS G12D TR-FRET Assay; type: binding; settings: read-out: KRAS G12D Binding IC50
Procedure, shortened: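 Each incubation ran at room temperature: enzyme with compound for 30 minutes, peptide for one hour, and detection reagents (0.4 nM europium anti-6×His, 5 nM streptavidin-d2) for one hour more. Protein and peptide stocks were each diluted to 20 nM before addition.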

[2] = target: GDP-bound KRAS protein (aa 1-169), containing both G12D and C118A amino acid substitutions (Homo sapiens (Human), UniProt P01116, C118A/G12D); experiment: KRAS G12D Coupled Nucleotide Exchange Assay; type: biochemical; settings: read-out: KRAS G12D Coupled Exchange IC50
Sequence of GDP-bound KRAS protein (aa 1-169), containing both G12D and C118A amino acid substitutions (P01116 other isoform, or with tags, fused parts or gaps G12D/C118A): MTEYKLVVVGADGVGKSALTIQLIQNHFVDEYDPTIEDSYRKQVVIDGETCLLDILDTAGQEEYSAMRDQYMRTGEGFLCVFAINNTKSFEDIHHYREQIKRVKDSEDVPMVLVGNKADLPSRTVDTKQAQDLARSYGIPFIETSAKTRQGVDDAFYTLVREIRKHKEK

[3] = tested on: Phosphorylation of ERK1/2 in AsPC-1 cells; experiment: Phospho-ERK1/2 MSD Assay; type: cell-based, human; settings: read-out: 2 h p-ERK (AsPC-1 cells), IC50
Procedure, shortened: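 Read-out: MSD electrochemiluminescent detection of phosphorylated ERK1/2 in whole-cell lysates, fitted to a 4-parameter logistic curve for IC50. Prior to lysis, AsPC-1 cells (25,000 per well) received a 2 h compound dose-response at 37 °C.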

[4] = tested on: AsPC-1 cells; experiment: AsPC-1 CTG Assay (CellTiter-Glo cell viability); type: cell-based, human; settings: AsPC-1, 72 h, first value of the cell, read-out: G12D/C/V Cell Proliferation CTG (72 h) AsPC-1
Procedure, shortened: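 IC50 values derive from 4-parameter logistic fits of CellTiter-Glo luminescence, expressed relative to DMSO. Compound dilution series were applied to overnight-seeded AsPC-1 or SW620 cells (RPMI 1640, 10% FBS) for 72 h at 37 °C, 5% CO2.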

[5] = tested on: SW620 cells; experiment: SW620 CTG Assay (CellTiter-Glo cell viability); type: cell-based, human; settings: SW620, 72 h, third value of the cell, read-out: G12D/C/V Cell Proliferation CTG (72 h) SW620
Experimental: AsPC-1 and SW620 CTG Assay Protocols
AsPC-1 (human pancreatic adenocarcinoma; ATCC CRL-1682) or SW620 (human colon adenocarcinoma; ATCC CCL-227) cells were cultured in RPMI 1640 medium containing 10% fetal bovine serum and 1× penicillin/streptomycin/L-glutamine. Cells were seeded in 384-well plates at a density of 3.33E+04 cells/mL and incubated at 37° C., 5% CO2, overnight. Serially-diluted compound or DMSO was added to the cells, and plates were incubated at 37° C., 5% CO2 for 72 h. Cell viability was measured using a CellTiter-Glo® Luminescent Cell Viability Assay kit (Promega) according to the manufacturer's protocol. The luminescence signal of treated samples was normalized to DMSO control, and data were analyzed using a 4-parameter logistic model to calculate IC50 values.

[6] = tested on: MIA PaCa-2 cells; experiment: MIA PaCa-2 CTG Assay (CellTiter-Glo cell viability); type: cell-based, human; settings: Mia PaCa-2, 72 h, second value of the cell, read-out: G12D/C/V Cell Proliferation CTG (72 h) Mia PaCa-2
Procedure, shortened: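 IC50 values come from a 4-parameter logistic fit of CellTiter-Glo luminescence, normalized to DMSO control, after 72 h compound exposure at 37° C, 5% CO2. Cells grew in RPMI 1640 plus 10% FBS and were seeded at 1.67E+04 cells/mL one night before dosing.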

Sequence of His-tagged KRAS G12D protein (P01116 other isoform, or with tags, fused parts or gaps G12D): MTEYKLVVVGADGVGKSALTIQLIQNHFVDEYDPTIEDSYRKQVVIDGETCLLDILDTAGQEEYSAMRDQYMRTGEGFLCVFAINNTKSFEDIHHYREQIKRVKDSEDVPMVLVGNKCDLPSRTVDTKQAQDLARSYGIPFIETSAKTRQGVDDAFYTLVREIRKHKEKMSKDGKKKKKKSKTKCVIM

Row | SMILES | pIC50 [1] | pIC50 [2] | pIC50 ([3]; Homo sapiens, ASPC1, 2 h) | pIC50 ([4]; Homo sapiens, ASPC1, 72 h) | pIC50 ([5]; Homo sapiens, SW-620) | pIC50 ([6]; Homo sapiens) | pIC50 ([3]; 2 h) | pIC50 [4] | pIC50 [5] | pIC50 [6]
1 | O=C1OCCc2c(Cl)cc3[nH]ncc3c2-c2ncc3c(nc(OC[C@@]45CCCN4C[C@H](F)C5)nc3c2F)N2CCOC[C@]3(C2)C[C@H](C3)O1 [Example 316, (1R,3R)-10-chloro-33-fluoro-24-(((2R,7aS)-2-fluorotetrahydro-1H-pyrrolo[1,2-a]pyrrol-7a(5H)-yl)methoxy)-4,6,30-trioxa-13,14,19,23,25,27-hexaazaheptacyclo[25.4.1.1~1,3~.1~18,22~.0~9,17~.0~12,16~.0~21,26~]tetratriaconta-9,11,14,16,18(33),19,21,23,25-nonaen-5-one] | 8.40 | 8.52 | 8.17 | 7.27 | 8.00 | 7.89 |  |  |  | 
2 | O=C1OCCCc2c(Cl)cc3[nH]ncc3c2-c2ncc3c(nc(OC[C@@]45CCCN4C[C@H](F)C5)nc3c2F)N2CCOC[C@](CF)(C2)O1 [Example 311, (26S)-18-chloro-32-fluoro-26-(fluoromethyl)-4-(((2R,7aS)-2-fluorotetrahydro-1H-pyrrolo[1,2-a]pyrrol-7a(5H)-yl)methoxy)-23,25,28-trioxa-1,3,5,9,14,15-hexaazahexacyclo[24.4.1.1~6,10~.0~2,7~.0~11,19~.0~12,16~]dotriaconta-2,4,6(32),7,9,11,13,16,18-nonaen-24-one] | 8.30 | 8.52 | 8.38 | 7.44 | 8.22 | 8.15 |  |  |  | 
3 | Fc1c2ncc3c(nc(OC[C@@]45CCCN4C[C@H](F)C5)nc13)N1CCCCC(COCCCCc3c(Cl)cc4[nH]ncc4c3-2)C1 (stereo partly drawn) [Example 141] | 8.70 | 9.00 | 8.22 | 6.92 | 7.69 | 7.70 |  |  |  | 
4 | Fc1c2ncc3c(nc(OC[C@@]45CCCN4C[C@H](F)C5)nc13)N1CCC[C@]3(C1)C[C@H](C3)OCCCCc1c(Cl)cc3[nH]ncc3c1-2 [Example 260, (1S,3R)-10-Chloro-32-fluoro-24-(((2R,7aS)-2-fluorotetrahydro-1H-pyrrolo[1,2-a]pyrrol-7a(5H)-yl)methoxy)-4-oxa-13,14,19,23,25,27-hexaazaheptacyclo[25.3.1.1˜1,3˜.1˜18,22˜.0˜9,17˜.0˜12,16˜.0˜21,26˜]tritriaconta-9,11,14,16,18(32),19,21,23,25-nonaene bis(2,2,2-trifluoroacetate)] | 8.40 | 8.70 |  |  |  |  | 8.49 | 7.40 | 8.10 | 7.59
5 | Cc1cc2[nH]ncc2c2c1CCCOC(=O)O[C@]1(C)COCCN(C1)c1nc(OC[C@@H]3CCCN3C)nc3c(F)c-2ncc13 [Example 183, (26S)-32-fluoro-18,26-dimethyl-4-(((2S)-1-methyl-2-pyrrolidinyl)methoxy)-23,25,28-trioxa-1,3,5,9,14,15-hexaazahexacyclo[24.4.1.1~6,10~.0~2,7~.0~11,19~.0~12,16~]dotriaconta-2,4,6,8,10(32),11,13,16,18-nonaen-24-one] | 8.10 | 8.40 | 7.31 | 6.79 | 7.36 | 7.30 |  |  |  | 
6 | O=C1OC[C@@H]2C[C@@H]2c2c(Cl)cc3[nH]ncc3c2-c2ncc3c(nc(OC[C@@]45CCCN4C[C@H](F)C5)nc3c2F)N2CCC[C@H](C2)O1 [Example 45, (11S,13R,18R)-9-Chloro-31-fluoro-25-(((2R,7aS)-2-fluorotetrahydro-1H-pyrrolo[1,2-a]pyrrol-7a(5H)-yl)methoxy)-15,17-dioxa-5,6,22,24,26,30-hexaazaheptacyclo[25.3.1.1˜18,22˜.0˜2,10˜.0˜3,7˜.0˜11,13˜.0˜23,28˜]dotriaconta-1(31),2,4,7,9,23,25,27,29-nonaen-16-one bis(2,2,2-trifluoroacetate)] | 8.70 | 9.00 | 9.00 | 7.30 | 8.00 | 8.00 |  |  |  | 
7 | Fc1cc2[nH]ncc2c2c1CCCCOC[C@H]1CCCCN(C1)c1nc(OC[C@@]34CCCN3C[C@H](F)C4)nc3c(F)c-2ncc13 [Example 240, (26S)-18,32-difluoro-4-(((2R,7aS)-2-fluorotetrahydro-1H-pyrrolo[1,2-a]pyrrol-7a(5H)-yl)methoxy)-24-oxa-1,3,5,9,14,15-hexaazahexacyclo[24.4.1.1~6, 10~.0~2,7~.0~11,19~.0~12,16~]dotriaconta-2,4,6(32),7,9,11,13,16,18-nonaene] | 8.52 | 8.70 | 7.66 | 6.64 | 7.10 | 6.85 |  |  |  | 
8 | O=C1CCCCc2c(Cl)cc3[nH]ncc3c2-c2ncc3c(nc(OC[C@@]45CCCN4C[C@H](F)C5)nc3c2F)N2CCCC[C@H](C2)N1 [Example 65, (26R)-18-Chloro-32-fluoro-4-(((2R,7aS)-2-fluorotetrahydro-1H-pyrrolo[1,2-a]pyrrol-7a(5H)-yl)methoxy)-1,3,5,9,14,15,25-heptaazahexacyclo[24.4.1.1˜6,10˜.0˜2,7˜.0˜11,19˜.0˜12,16˜]dotriaconta-2,4,6,8,10(32),11,13,16,18-nonaen-24-one bis(2,2,2-trifluoroacetate)] | 8.22 | 8.70 | 7.62 | 6.49 | 7.28 | 6.80 |  |  |  | 
9 | Fc1c2ncc3c(nc(OC[C@@]45CCCN4C[C@H](F)C5)nc13)N1CCC[C@@](F)(COCCCCc3c(Cl)cc4[nH]ncc4c3-2)C1 [Example 151, (17S)-9-chloro-17,30-difluoro-24-(((2R,7aS)-2-fluorotetrahydro-1H-pyrrolo[1,2-a]pyrrol-7a(5H)-yl)methoxy)-15-oxa-5,6,21,23,25,29-hexaazahexacyclo[24.3.1.1~17,21~.0~2,10~.0~3,7~.0~22,27~]hentriaconta-1(30),2,4,7,9,22,24,26,28-nonaene] | 8.40 | 8.70 | 7.89 | 6.70 | 7.41 | 7.15 |  |  |  | 
10 | Cc1c2ncc3c(nc(OC[C@@]45CCCN4C[C@H](F)C5)nc13)N1CCC[C@](C)(C1)NC(=O)CCCc1c(F)ccc3cc(O)cc-2c13 [Example 18, (15R)-22-Fluoro-8-(((2R,7aS)-2-fluorotetrahydro-1H-pyrrolo[1,2-a]pyrrol-7a(5H)-yl)methoxy)-27-hydroxy-15,31-dimethyl-3,7,9,11,16-pentaazahexacyclo[19.7.1.1˜2,6˜.1˜11,15˜.0˜5,10˜.0˜25,29˜]hentriaconta-1(28),2(31),3,5,7,9,21,23,25(29),26-decaen-17-one] | 8.22 | 8.52 | 7.92 | 7.09 | 7.49 | 7.54 |  |  |  | 
11 | O=C1OCCCc2c(Cl)cc3[nH]ncc3c2-c2ncc3c(nc(OCC45CCCN4CCC5)nc3c2F)N2CCOC[C@H](C2)O1 [Example 198, (26S)-18-chloro-32-fluoro-4-(tetrahydro-1H-pyrrolo[1,2-a]pyrrol-7a(5H)-ylmethoxy)-23,25,28-trioxa-1,3,5,9,14,15-hexaazahexacyclo[24.4.1.1~6,10~.0~2,7~.0~11,19~.0~12,16~]dotriaconta-2,4,6,8,10(32),11,13,16,18-nonaen-24-one] | 8.70 | 9.00 | 8.09 | 6.97 | 7.85 | 7.80 |  |  |  | 
